Test results taken from PMC10266261, “A High-Throughput Approach to Identify Specific Neurotoxicants / Developmental Toxicants in Human Neuronal Cell Function Assays” (ALTEX, 2018).
Like-named read-outs stand apart in the source and are kept apart here.

Experiments:
cardiomyocytes = conditions: specific = cardio-physiologic parameters affected after 30 min at three-fold lower concentration than viability and no effect on viability after 24 h; ref Sirenko et al., 2017; cited from earlier work
[1] = test system: immature human dorsal root ganglia neurons; assay: cells; assay type: cell-based; conditions: for classification in the PeriTox screen: three independent screen runs, up to 20 μM
Method: The PeriTox test (= UKN5) is based on cells differentiated from the H9 human embryonic stem cell (hESC) line (WA09 line), which was obtained from WiCell (Madison, WI, USA). The import of cells and the experiments were authorized under license no. 170–79-1–4-27 (Robert Koch Institute, Berlin, Germany).
After one hour, 25 μl PDM with 4x concentrated serial dilutions of the test compounds was added to the cells. At 23 h after treatment, the cells were stained with SM and incubated for one additional hour at 37°C.
(§1) Image acquisition was performed with an ArrayScan VTI HCS (high content imaging) microscope (Cellomics, Waltham, MA, USA).
After automated imaging, an algorithm was applied that identified the neuronal somata (based on identified nuclei) and subtracted the somatic area from the total neuronal area to obtain the neurite area (NA), i.e., the number of pixels per field covered by neurites. […] Viability (V) was expressed as percentage of live cells relative to control.
(§2) Neurite area (NA) and viability (V) were always expressed as percentage of the DMSO control. In a first step, matched technical replicates were averaged. […] Curve fitting was performed employing a 4-parameter log-logistic function with least squares fit. The upper asymptote of the fit was forced to 100%, the lower asymptote was variable. The variation of DMSO controls was calculated from pooled values of DMSO controls over several experiments.
For calculation of the benchmark concentration values (BMC), a benchmark response (BMR) of three standard deviations of DMSO solvent controls of all assay plates (= “3 x noise level”) was used. […] To identify specific effects on neurite outgrowth, the EC50 ratio of EC50(viability)/EC50(neurite area) was calculated.
This method uses human immature dorsal root ganglia neurons (iDRG) that are produced from pluripotent stem cells that are still in a phase of neurite growth. Like in the NeuriTox assay, exposure to toxicants in this test is for 24 h, and readouts for viability (V) and neurite area (NA) are also conducted in a similar way (Fig. 7A).

LUHMES cells = assay: cells; assay type: cell-based, human; conditions: for classification / outcome after hit confirmation or re-testing (EC50 prediction model): EC50 ratio V/NA ≥ 4 specific, < 4 cytotoxic; for EC50: Homo sapiens; for LOAEL for neurite area (lowest tested concentration with significant reduction) / classification in the NeuriTox screen: screen; for classification in the NeuriTox screen: hit = NA decreased at concentrations not affecting viability
Method: For the NeuriTox test (= UKN4), LUHMES (Lund human mesencephalic) cells were characterized and cultured as described in detail earlier ([Krug et al., 2013]; [Lotharius et al., 2005]; [Scholz et al., 2011]). Briefly, cells were maintained in proliferation medium (PM: AdvDMEM/F12 supplemented with 2 mM glutamine, 1x N2 supplement and 40 ng/ml fibroblast growth factor-2) in PLO/fibronectin coated flasks (50 μg/ml poly-L-ornithine (PLO) and 1 μg/ml fibronectin). For differentiation, cells were seeded at a density of 46,000 cells/cm^2 in PM. After 24 h, they were switched to differentiation medium (DM) containing AdvDMEM/F12 supplemented with 2 mM glutamine, 1x N2 supplement, 2.25 μM tetracycline, 1 mM dibutyryl 3’,5’-cyclic adenosine monophosphate (cAMP), and 2 ng/ml recombinant human glial cell derived neurotrophic factor (GDNF).
For the NeuriTox test, LUHMES cells were differentiated for 48 h and seeded into 96 well plates at a density of 100,000 cells/cm^2 in a volume of 90 μl DM without cAMP and GDNF. Treatment was initiated applying 10 μl of a 10x concentrated treatment solution one hour after seeding. At 24 h after treatment, staining mix (SM) was applied (final concentrations: 1 μg/ml H-33342, 1 μM calcein-AM).
as §1
The procedure was applied as detailed earlier ([Hoelting et al., 2016]; [Stiegler et al., 2011]). After automated imaging, an algorithm was applied that identified the neuronal somata (based on identified nuclei) and subtracted the somatic area from the total neuronal area to obtain the neurite area (NA), i.e., the number of pixels per field covered by neurites. Viability analysis was performed on the same pictures using combined information from H-33342 and calcein channels. Cells with normal-sized nuclei that were calcein-positive were counted as live cells, whereas H-33342 single-positive cells were counted as dead cells. Viability (V) was expressed as percentage of live cells relative to control.
as §2
For calculation of the benchmark concentration values (BMC), a benchmark response (BMR) of three standard deviations of DMSO solvent controls of all assay plates (= “3 x noise level”) was used. […] To identify specific effects on neurite outgrowth, the EC50 ratio of EC50(viability)/EC50(neurite area) was calculated. The NeuriTox test system has a specificity threshold ratio of 4, the PeriTox test system has one of 3 ([Hoelting et al., 2016]; [Krug et al., 2013]).
If V was not affected at the highest tested concentration (HTC), then 4 x HTC was used as surrogate EC50(V) (marked with ♦; for EC25 calculation, the HTC was doubled in this case) ([Krug et al., 2013]).
For the actual screening procedure, a defined workflow was established that contained several pre-determined decision points. All compounds were tested at 1:1000 dilutions of their stock concentration, and at subsequent 3-fold dilution levels. For most compounds, the stock was 20 mM, so that the test concentrations were 20 μM, 6.7 μM, 2.2 μM, 0.7 μM, 0.25 μM, 82 nM, 27 nM, 9 nM, 3 nM, and 1 nM. For 2,2’,4,4’,5,5’-hexabromodiphenyl-ether, chrysene, dibenz(a,h)anthracene, bis(tributyltin) oxide, benzo[g,h,i]perylene, and 2,3,7,8-tetrachlorodibenzo-p-dioxin lower stock concentrations were used.

[2] = hit confirmation / re-testing, adjusted concentration range, 24 h, read-out: EC50(NA), neurite area
[3] = Homo sapiens, Neuron, hit confirmation, 24 h, read-out: EC50(NA), neurite area
[4] = Homo sapiens, Neuron, hit confirmation, V not affected at HTC: 4 x HTC used as surrogate, read-out: EC50(V), viability, surrogate marked ♦

Structure (SMILES): Cl.NCCc1cc(O)c(O)cc1O [6-Hydroxydopamine hydrochloride]
- classification in the cardiotoxicity test method (cardiomyocytes): specific

Structure (SMILES): C=CC(N)=O [Acrylamide]
- classification / outcome after hit confirmation (EC50 ratio viability/neurite area ≥ 3) [1]: specific PeriTox hit
- ratio EC50(V)/EC50(NA) ([1]; hit confirmation, ≥ 3 = specific hit): 3.2
- EC50 ([1]; tested at high concentration, 24 h, read-out: EC50(NA), neurite area): 2300 µM

Structure (SMILES): CC(C)(c1ccc(O)cc1)c1ccc(O)cc1 [BPA, bisphenol A]
- classification / outcome after hit confirmation or re-testing (EC50 prediction model) (LUHMES cells): no effect up to 100 μM

Structure (SMILES): COc1ccc2cc3[n+](cc2c1OC)CCc1cc2c(cc1-3)OCO2 [Berberine chloride]
- EC50 (LUHMES cells; [2]): 23.9 µM
- EC50 (LUHMES cells; hit confirmation, adjusted concentration range, 24 h, read-out: EC50(V), viability): 126 µM
- LOAEL for neurite area (lowest tested concentration with significant reduction) (LUHMES cells; 24 h): 20 µM
- classification in the NeuriTox screen (LUHMES cells; up to 20 μM, 24 h): active hit compounds
- classification in the cardiotoxicity test method (cardiomyocytes): generally cytotoxic
- EC50 [1, 3]: 11.6 µM
- EC50 [1, 4]: 165 µM
- classification in the PeriTox screen [1]: active hit compounds

Structure (SMILES): O=C1C2CC=CCC2C(=O)N1SC(Cl)(Cl)Cl (centres unmarked) [Captan]
- classification / outcome after hit confirmation or re-testing (EC50 prediction model) (LUHMES cells): cytotoxicant with relatively low potency

Structure (SMILES): CNC(=O)Oc1cccc2ccccc12 [Carbaryl]
- EC50 (LUHMES cells; 24 h, read-out: EC50(NA), neurite area): 31 µM
- EC50 (LUHMES cells; 24 h, read-out: EC50(V), viability): 130 µM
- LOAEL for neurite area (lowest tested concentration with significant reduction) (LUHMES cells; 24 h): 20 µM
- classification in the NeuriTox screen (LUHMES cells; up to 20 μM, 24 h): active hit compounds
- classification in the cardiotoxicity test method (cardiomyocytes): specific
- classification in the PeriTox screen [1]: active hit compounds

Structure (SMILES): COc1cc2c(c(OC)c1OC)-c1ccc(OC)c(=O)cc1[C@@H](NC(C)=O)CC2 [Colchicine]
- LOAEL for neurite area (lowest tested concentration with significant reduction) (LUHMES cells; 24 h): 0.027 µM
- classification in the NeuriTox screen (LUHMES cells; up to 20 μM, 24 h): active hit compounds
- classification in the PeriTox screen [1]: active hit compounds

Structure (SMILES): CC/C(=C(/CC)c1ccc(O)cc1)c1ccc(O)cc1 [Diethylstilbestrol]
- classification in the NeuriTox screen (LUHMES cells; up to 20 μM, 24 h): active hit compounds
- classification in the PeriTox screen [1]: active hit compounds

Structure (SMILES): Oc1c(Cl)cc(Cl)c(Cl)c1Cc1c(O)c(Cl)cc(Cl)c1Cl [Hexachlorophene]
- classification in the NeuriTox screen (LUHMES cells; up to 20 μM, 24 h): cytotoxic

Structure (SMILES): CCCCNC(=O)OCC#CI [Iodocarb]
- EC50 (LUHMES cells; screen data, 24 h exposure, up to 20 μM, read-out: EC50(NA), neurite area): 0.9 µM
- EC50 (LUHMES cells; screen data, 24 h exposure, up to 20 μM, read-out: EC50(V), viability): 1.2 µM
- ratio EC50(V)/EC50(NA) (LUHMES cells; screen data, specificity threshold 4): 1.3
- EC50 [1, 3]: 7.8 µM
- EC50 [1, 4]: 66 µM
- classification in the PeriTox screen [1]: active hit compounds

Structure (SMILES): C[n+]1ccc(-c2ccccc2)cc1.[I-] [MPP^+, 1-methyl-4-phenylpyridinium iodide]
- EC50 (LUHMES cells; [2]): 80 µM
- classification in the NeuriTox screen (LUHMES cells; up to 20 μM, 24 h): active hit compounds
- classification / outcome after hit confirmation (EC50 ratio viability/neurite area ≥ 3) [1]: not active at all
